# Results as given in patent US20100329996A1, “Novel Combination of Therapeutic Agents” (Glaxo Group Limited, priority 2007, published 2010).
# Tests used:
# [1] = stability of formulation with magnesium stearate; assay type: physicochemical; conditions: addition of magnesium stearate in the formulation, under conditions tested
# [2] = system: isolated human bronchial strips; assay: inhibition of carbachol-induced contraction of isolated human bronchial strips; assay type: cell-based; conditions: for offset half time: 10 nM; for onset half time to 50% inhibition of carbachol-induced contraction: single concentration of 10 nM
# [3] = system: M1 and M3 receptors over the M2 receptors; assay: muscarinic receptor subtype selectivity and antagonist character; assay type: binding
# [4] = human clinical trial, bronchodilation and onset of action; assay type: in vivo
# [5] = system: healthy male ipratropium-responsive subjects; assay: clinical trial, single escalating inhaled doses, airway conductance (sGaw); assay type: in vivo, human; conditions: for increase in airway conductance (sGaw) versus placebo, significance: all doses (bromide compound 20-350 mcg via Diskus; tiotropium 18 mcg), healthy subjects
# Text: In another clinical trial using a binary mixture of the bromide compound and lactose monohydrate, the safety, tolerability, pharmacodynamics and pharmacokinetics of single escalating doses of the bromide compound (20, 60, 100, 250 and 350 mcg via the Diskus), and tiotropium (18 mcg) in 20 healthy male ipratropium-responsive subjects were compared.
# [6] = system: male and female ipratropium-responsive COPD subjects; assay: clinical study, single inhaled doses, FEV1; assay type: in vivo, human
# Protocol: A third clinical study assessed the safety, tolerability, pharmacodynamics and pharmacokinetics of single inhaled doses of the bromide compound (20, 50 and 100 mcg via Diskus), and tiotropium (18 mcg) in 31 male and female ipratropium-responsive COPD subjects.
# Mean FEV1 values peaked at 2 hours and decreased consistently to 24 hours for each dose.
# [7] = system: muscarinic acetylcholine (Ach) receptor; assay: off-rate at the muscarinic acetylcholine receptor; assay type: binding
# Text: This is known to be predictive of a long duration of action. Therefore, while a twice daily dosing at 10-100 mcg/dose may be used, if the dose is increased, such as to 100-200 mcg/dose, once daily dosing may be a suitable alternative.
stabilization of the product on stability [1],reversibility of antagonism [3],selectivity for the M1 and M3 receptors over the M2 receptors [3],off-rate at the muscarinic acetylcholine (Ach) receptor [7],Compound,offset half time [2],onset half time to 50% inhibition of carbachol-induced contraction [2],muscarinic receptor antagonist character [3],onset of action in human clinical trial ([4]; compared with tiotropium),"bronchodilator efficacy in human clinical trial ([4]; human, in vivo)","increase in sGaw compared with placebo ([5]; 20 mcg dose, after 24 hours)","increase in airway conductance (sGaw) versus placebo, significance [5]","FEV1 adjusted mean difference versus placebo ([6]; 20 mcg, 12 hours)","FEV1 adjusted mean difference versus placebo ([6]; 20 mcg, 24 hours)","FEV1 adjusted mean difference versus placebo ([6]; 50 mcg, 12 hours)","FEV1 adjusted mean difference versus placebo ([6]; 50 mcg, 24 hours)","FEV1 adjusted mean difference versus placebo ([6]; 100 mcg, 12 hours)","FEV1 adjusted mean difference versus placebo ([6]; 100 mcg, 24 hours)","Mean FEV1 versus placebo, significance ([6]; all doses (20, 50, 100 mcg), each time point over 24 hours, COPD subjects)","time of peak mean FEV1 ([6]; each dose (20, 50, 100 mcg))"
some improvement in stabilization,–,–,–,"C[N+]1(C)C2CCC1CC(CC(C#N)(c1ccccc1)c1ccccc1)C2 (stereo not drawn) [Compound (I), (Endo)-3-(2-cyano-2,2-diphenyl-ethyl)-8,8-dimethyl-8-azonia-bicyclo[3.2.1]octane]",–,–,–,–,–,–,–,–,–,–,–,–,–,–,–
–,partially reversible antagonist,10 fold,slow,"C[N+]1(C)[C@@H]2CC[C@H]1C[C@@H](CC(C#N)(c1ccccc1)c1ccccc1)C2.[Br-] [bromide compound, (Endo)-3-(2-cyano-2,2-diphenyl-ethyl)-8,8-dimethyl-8-azonia-bicyclo[3.2.1]octane bromide]",195 min,25 min,"high-affinity, pan-active, competitive and reversible",faster onset of action than tiotropium,effective long-acting anti-muscarinic bronchodilator,16%,statistically significantly greater increases,241 mL,135 mL,288 mL,136 mL,305 mL,above 200 mL,statistically significantly higher than placebo,2 h
–,–,–,–,"C[N+]1(C)[C@@H]2C[C@@H](OC(=O)C(O)(c3cccs3)c3cccs3)C[C@H]1[C@@H]1O[C@@H]12 [tiotropium, tiotropium bromide, reference compound]",314 min,10 min,–,–,–,–,statistically significantly greater increases,–,–,–,–,–,–,–,–
